Test results published in article PMC12396409, “Screening and hit evaluation of a microbial metabolite library against the pathogenic Plasmodium falciparum and Toxoplasma gondii parasites” (International Journal for Parasitology: Drugs and Drug …, 2025).
Like-named read-outs stand apart in the source and are kept apart here.

Key:
[1] = tested on: P. falciparum 3D7 parasites; test: P. falciparum growth inhibition assay, 2-cycle (120 h treatment), delayed-death screen and dose-response; assay type: cell-based, Plasmodium falciparum; conditions: for Pf_120h_%Growth_Rep1 / Pf_120h_%Growth_Rep2: % growth; for activity at 2 µg/mL: Plasmodium falciparum, 3D7, screen at 2 μg/mL
[2] = tested on: P. falciparum 3D7 parasites; test: P. falciparum growth inhibition assay, 1-cycle (72 h treatment), SYBR DNA staining (library screen at 2 μg/mL and dose-response); assay type: cell-based, Plasmodium falciparum; conditions: for Pf_72h_%Growth_Rep1 / Pf_72h_%Growth_Rep2: % growth; for activity at 2 µg/mL: Plasmodium falciparum, 3D7, screen at 2 μg/mL
[3] = tested on: T. gondii RH strain (RH-Tub-eYFP) tachyzoites; test: microbe, parasite or virus in culture; assay type: cell-based, Toxoplasma gondii; conditions: 72 h; for Tg_72h_%Growth_Rep1 / Tg_72h_%Growth_Rep2: % growth; for Tg_72h_%Growth_Rep1: replicate 1; for Tg_72h_%Growth_Rep2: replicate 2; for percent parasite growth at 2 µg/mL: Toxoplasma gondii
[4] = T. gondii, parasite screen 2 μg/mL
[5] = library screen at 2 μg/mL, 120 h, replicate 1
[6] = library screen at 2 μg/mL, 120 h, replicate 2
[7] = library screen at 2 μg/mL, 72 h, replicate 1
[8] = library screen at 2 μg/mL, 72 h, replicate 2
[9] = T. gondii RH, library screen at 2 μg/mL

Row | Compound | Pf_120h_%Growth_Rep1 [1, 5] | Pf_120h_%Growth_Rep2 [1, 6] | Pf_72h_%Growth_Rep1 [2, 7] | Pf_72h_%Growth_Rep2 [2, 8] | Tg_72h_%Growth_Rep1 ([3]; library screen at 2 μg/mL) | Tg_72h_%Growth_Rep2 ([3]; library screen at 2 μg/mL) | other results
1 | Spirolaxine | – | – | – | – | – | – | Pf_120h_%Growth_Rep1 ([1]; P. falciparum, 120 h, parasite screen 2 μg/mL, replicate 1): 32.74%; Pf_120h_%Growth_Rep2 ([1]; P. falciparum, 120 h, parasite screen 2 μg/mL, replicate 2): 18.31%; Pf_72h_%Growth_Rep1 ([2]; P. falciparum, 72 h, parasite screen 2 μg/mL, replicate 1): 54.30%; Pf_72h_%Growth_Rep2 ([2]; P. falciparum, 72 h, parasite screen 2 μg/mL, replicate 2): 41.64%; Tg_72h_%Growth_Rep1 [3, 4]: 20.75%; Tg_72h_%Growth_Rep2 [3, 4]: 22.73%
2 | Cc1c2c(c(O)c3c(O)cccc13)C(=O)O[C@@H]2[C@@H]1[C@H](O)C(=O)C(C(N)=O)=C(O)[C@H]1N(C)C [Apooxytetracycline, alpha-] | 91.28% | 90.91% | 86.78% | 89.73% | 81.07% | 111.56% | –
3 | CC[C@H]1OC(=O)[C@H](C)[C@@H](O[C@H]2C[C@@](C)(OC)[C@@H](O)[C@H](C)O2)[C@H](C)[C@@H](O[C@@H]2O[C@H](C)C[C@H](N(C)C)[C@H]2O)[C@@]2(C)C[C@@H](C)[C@@]3(O[C@@]1(C)[C@H](O)[C@H]3C)O2 [Anhydroerythromycin A] | 87.25% | 85.54% | 84.47% | 88.69% | 129.02% | 98.86% | –
4 | C[C@H]1[C@H](C)CC[C@]2(C(=O)O)CC[C@]3(C)C(=CC[C@@H]4[C@@]5(C)CC[C@H](O)C(C)(C)[C@@H]5CC[C@]43C)[C@H]12 [Ursolic acid] | – | – | – | – | – | – | activity at 2 µg/mL ([1]; P. falciparum, 120 h, replicate 1, read-out: Pf_120h_%Growth_Rep1): 155%; activity at 2 µg/mL ([1]; P. falciparum, 120 h, replicate 2, read-out: Pf_120h_%Growth_Rep2): 79.7%; activity at 2 µg/mL ([2]; P. falciparum, 72 h, replicate 1, read-out: Pf_72h_%Growth_Rep1): 77.7%; activity at 2 µg/mL ([2]; P. falciparum, 72 h, replicate 2, read-out: Pf_72h_%Growth_Rep2): 84%; percent parasite growth at 2 µg/mL ([3]; read-out: Tg_72h_%Growth_Rep1): 96%; percent parasite growth at 2 µg/mL ([3]; read-out: Tg_72h_%Growth_Rep2): 92.8%
5 | CCCCCC(=O)C(CCCC)c1oc(=O)c(CCCC)c(O)c1CCCC (stereo not drawn) [Elasnin] | 85.68% | 81.51% | 87.43% | 85.83% | 103.90% | 75.71% | –
6 | COc1cc(C)c2c(OC)cc(=O)oc2c1-c1c(OC)cc(C)c2c(OC)cc(=O)oc12 [BIA-K1634] | – | – | – | – | – | – | Pf_120h_%Growth_Rep1 ([1]; P. falciparum 3D7, 120 h, library screen at 2 μg/mL, replicate 1): 81.50%; Pf_120h_%Growth_Rep2 ([1]; P. falciparum 3D7, 120 h, library screen at 2 μg/mL, replicate 2): 124.49%; Pf_72h_%Growth_Rep1 ([2]; P. falciparum 3D7, 72 h, library screen at 2 μg/mL, replicate 1): 79.71%; Pf_72h_%Growth_Rep2 ([2]; P. falciparum 3D7, 72 h, library screen at 2 μg/mL, replicate 2): 89.27%; Tg_72h_%Growth_Rep1 [3, 9]: 128.61%; Tg_72h_%Growth_Rep2 [3, 9]: 101.38%
7 | CC(C)c1ncc(Cc2ccccc2)[nH]c1=O [Aureusimine B] | 140.97% | 94.84% | 102.22% | 85.03% | 82.28% | 99.21% | –
8 | COC1=C(OC)C(=O)C(C)=CC1=O [Fumigatin methylether] | 25.98% | 27.21% | 10.44% | 11.19% | 59.41% | 97.15% | –
